From patent publication US8378112B2, “Glycyrrhetinic acid derivative and use thereof” (INI Corporation, priority 2008, dated 2013)

Tests used:
mice = type: in vivo; settings: intraperitoneal injection of 200 and 1000 mg/kg body weight
C57BL/6J mice = assay: Hippocampal glutamate concentration determination (microdialysis, LPS stimulus); type: in vivo, mouse; settings: 20 mg/kg intraperitoneal simultaneously with 10 μg/2 μl LPS stimulus; FIG. 13
Description: A microdialysis catheter was indwelled stereotaxically (in place) into the hippocampus of C57BL/6J mice (8 weeks of age, female, n=5 to 7). After settlement for 48 hours, the determination of the hippocampal glutamate with time was started using high-speed liquid chromatography (HPLC, HITEC-500 GAD, made by Eicom Corp. A stimulus was given by administering 10 μg/2 μl of lipopolysaccharide (LPS) through said catheter, along with an intraperitoneal injection of 20 mg/kg body weight CBX or Compound B simultaneously with the LPS stimulus administration, for a pharmacological efficacy assessment. The hippocampal glutamate concentration was quantified as a % value relative to the average value thereof from 120 minutes to 60 minutes before the stimulus was given to each individual.

[1] = system: Mouse cerebral cortex primary neuronal cells; assay: Cell death of neuronal cells cultured with microglia-conditioned medium (propidium iodide, TUNEL); type: cell-based; settings: microglia conditioned medium with LPS and compound at 1, 10, 100 μM; FIG. 6
Description: (§1) Next, Compound A and Compound B were checked as to their inhibitory effect on glutamate production in activated microglia. That is, mouse primary microglia were isolated from primary mixed glial cell cultures, prepared from neonatal C57BL/6 mice brains by the “shaking off” method on the 14th culture day or later (Suzumura, A. et al J. Neuroimmunol. 15, 263-278 1987). Mouse cerebral cortex primary neuronal cells were prepared from the cerebral cortices of C57BL/6J mice at embryonic day 17, and were plated on polyethyleneimine-coated cover glasses, and were used at culture day 10-13 (Takeuchi, H. et al. J. Biol. Chem. 280, 10444-10454, 2005.)
Using the culture system of neuronal cells utilizing a microglia conditioned medium, the neuronal cell damage by activated microglia was analyzed with time by the following methods (Takeuchi, H. et al. J. Biol. Chem. 280, 10444-10454, 2005.) Namely, 1 μg/ml lipopolysaccharide (LPS) and Compound A, Compound B, and carbenoxolone (CBX) at each concentration thereof (1 μM, 10 μM and 100 μM as the final concentrations) were added to a microglia culture (about 5×10^4 cells/well, a neuronal culture medium, (made by Sumitomo Bakelite Co., Ltd)) followed by incubating under 100% humidity and 5% CO2 for 24 hours. For a control, except for not adding Compound A or Compound B, microglia were incubated in a similar manner (LPS). […]

LPS-activated microglia = assay: Inhibitory effect on glutamate production by activated microglia (glutamate in neuronal medium cultured with microglia conditioned medium); type: cell-based, mouse; settings: for glutamate concentration in the neuron culture media: microglia cultured with 1 μg/ml LPS and compound at 1, 10, 100 μM for 24 hours
Description: as §1
Using the culture system of neuronal cells utilizing a microglia conditioned medium, the neuronal cell damage by activated microglia was analyzed with time by the following methods (Takeuchi, H. et al. J. Biol. Chem. 280, 10444-10454, 2005.) Namely, 1 μg/ml lipopolysaccharide (LPS) and Compound A, Compound B, and carbenoxolone (CBX) at each concentration thereof (1 μM, 10 μM and 100 μM as the final concentrations) were added to a microglia culture (about 5×10^4 cells/well, a neuronal culture medium, (made by Sumitomo Bakelite Co., Ltd)) followed by incubating under 100% humidity and 5% CO2 for 24 hours. For a control, except for not adding Compound A or Compound B, microglia were incubated in a similar manner (LPS).
Each of the activated microglia conditioned media, 500 μl, 24 hrs after the administration, was added to neuronal cells (5×10^4 cells/well) in a 24-well plate, and the neuronal cells were cultured at 37° C. under 100% humidity and 5% CO2. The non-activated microglia conditioned medium was also added to neuronal cells to serve as a control (NT). 24 hours after the start of culturing, the amounts of glutamate and neuronal cell death in the conditioned medium were analyzed.
Determination of glutamate was performed by colorimetry; and neuronal cell death was assessed by the dye-exclusion method with propidium iodide under a fluorescence microscope and the terminal deoxynucleotidyl transferase-mediated […] (TUNEL) staining.

[2] = system: human superoxide dismutase 1 (SOD1) G93A mutant transgenic mouse; assay: Survival extension effect in an ALS model mouse; type: in vivo; settings: 20 mg/kg intraperitoneal 3 times a week from 6-7 weeks of age; vs PBS, p<0.0002; FIG. 7
Description: The assessment of drug efficacy was conducted using, as an animal model of neurodegenerative diseases, the human superoxide dismutase 1 (SOD1) G93A mutant transgenic mouse, which is widely used as a model of amyotrophic lateral sclerosis (ALS). Said transgenic mice were procured from Jackson Laboratory, USA.
(§2) Starting at 6-7-weeks of age, which is considered to be an early ALS onset period, they were intraperitoneally administered with 20 mg/kg body weight of Compound B, which is a novel gap junction inhibitor, CBX, or the same volume of physiological saline (PBS group) 3 times a week. The survival analysis was performed using the Kaplan-Meier method.

[3] = system: APP/PS1 mutant double transgenic mouse; assay: Fear conditioned learning test in Alzheimer's disease model mouse; type: in vivo; settings: FIG. 11
Description: (§3) The assessment of drug efficacy of Compound B was conducted using, as an animal model of neurodegenerative diseases, the human amyloid precursor protein/human presenilin-1 (APP/PS1) mutant double transgenic mouse, which is widely used as an Alzheimer's disease model mouse.
(§4) Starting at 9 months of age, which is considered to be an intermediate onset period, they were intraperitoneally administered with 10 and 20 mg/kg body weight of Compound B or the same volume of physiological saline (PBS group) 3 times a week. The control group was a wild type mouse (G57BL/6J) of the same age. Behavioral analysis was performed using the following three types of behavior experiments.
(2) Fear conditioned learning test: Associative learning was assessed using a fear conditioned learning test (Mouri et al., FASEB J. 21, 2135-2148, 2007; Nagai et al., FASEB J. 17, 50-52, and 2003). The mice were placed in a transparent acrylic cage with a stainless steel grid installed therein and were subjected to a 20 second tone stimulus (80 dB), and then further to an electric stimulus (0.6 mA). A set of this combination stimulus was repeated 4 times with 15 second intervals, thereby causing fear conditioning. A contextual dependency test and a tone stimulus dependency test were carried out 24 hours after the fear conditioning. For the former, mice were placed in the […] acrylic cage with a grid where the fear conditioning took place to determine their freezing behavior for two minutes under a context of giving no tone and no electric stimuli. For the latter, mice were placed in a black acrylic cage having wood chips on the floor thereof, to determine their freezing behavior for 1 minute when given a continuous tone stimulus. The results were expressed respectively in terms of a percentage (%) of the freezing behavior time relative to the total time for determination.

[4] = system: APP/PS1 mutant double transgenic mouse; assay: Morris water maze test in Alzheimer's disease model mouse; type: in vivo; settings: FIG. 12
Description: as §3, §4
(3) Morris water maze test: Spatial recognition memory was evaluated using the Morris water maze test (Mouri et al. and FASEB J. 21 2135-2148 2007; Miyamoto et al; J. Neurosci. 25, 1826-1835 2005). A 60 second trial was conducted 3 times a day to determine the swimming time (escape latency) and swimming distance (distance moved) from a different start position to a fixed platform. This was performed for seven days in row; on the eighth day, a probe test was performed with the platform removed. The Probe test involved dividing the water maze into 4 regions consisting of Target (Platform), Right, Opposite, and Left and determining the ratios of the regions in which they swam over 60 seconds. The items to be determined were determined using the SMART system (Panlab, Barcelona, Spain).

[5] = system: human superoxide dismutase 1 (SOD1) (G93A) mutant transgenic mouse; assay: Survival extension effect in an acute-onset ALS model mouse; type: in vivo; settings: 20 mg/kg intraperitoneal 3 times a week from 7-8 weeks of age; vs PBS, p<0.0001; FIG. 8
Description: The assessment of drug efficacy at different Compound B concentrations was conducted using, as an animal model of neurodegenerative diseases, a human superoxide dismutase 1 (SOD1) (G93A) mutant transgenic mouse, which is widely used as an acute-onset model of amyotrophic lateral sclerosis (ALS).
as §2, with “7-8-weeks” for “6-7-weeks”, “with 5, 10, and” for “with”, “the” for “Compound B, which is a”, “inhibitor (Compound B)” for “inhibitor, CBX,”

[6] = system: APP/PS1 mutant double transgenic mouse; assay: Novel object exploration test in Alzheimer's disease model mouse; type: in vivo; settings: 10 and 20 mg/kg intraperitoneal 3 times a week; FIG. 10
Description: as §3, §4
(1) Novel object exploration test: After the mice were habituated for 3 days (10 minutes/day) in an acrylic experiment apparatus, they were subjected to training. The raining consisted of placing two different objects in the apparatus and they were allowed to freely explore for 10 minutes. 24 hours after the training, Retention was carried out. The Retention consisted of replacing one of the two objects which had been placed in the apparatus during the training with a novel object and allowing the mice to freely explore for 5 minutes. The times spent exploring (touching, sniffing behavior and the like) the two objects were determined respectively. […]

[7] = 10 and 20 mg/kg intraperitoneal 3 times a week

| Structure (SMILES) | deaths after acute dosing (mice) | inhibitory effect on the rise in hippocampal glutamate (C57BL/6J mice) | neuronal cell death (%) [1] | glutamate concentration in the neuron culture media (LPS-activated microglia; FIG. 5) | extending survival, on average [2] | freezing behavior time, tone stimulus dependency test ([3]; 20 mg/kg administered group) | freezing behavior time, contextual dependency test [3, 7] | freezing behavior time, tone stimulus dependency test [3, 7] | distance swum ([4]; 10 mg/kg, training day 1) | distance swum ([4]; 10 mg/kg, training day 5-7) | distance swum ([4]; 20 mg/kg, training day 4-7) | swimming time ([4]; 20 mg/kg, training day 4-7) | swimming time in the target region (Probe test) ([4]; Compound B administered groups, day 8 probe test) | glutamate release inhibition (LPS-activated microglia; 100 μM, LPS-activated microglia, FIG. 5) | inhibition of glutamate release in LPS-activated microglia, comparison of compounds (LPS-activated microglia; LPS-activated microglia) | extending survival, on average [5] | novel object exploratory preference [6] |
| --- | --- | --- | --- | --- | --- | --- | --- | --- | --- | --- | --- | --- | --- | --- | --- | --- | --- |
| CC1(C)[C@@H](OC(=O)CCC(=O)O)CC[C@]2(C)[C@H]3C(=O)C=C4[C@@H]5C[C@@](C)(C(=O)O)CC[C@]5(C)CC[C@@]4(C)[C@]3(C)CC[C@@H]12 [CBX, carbenoxolone, reference compound] | all mice among the CBX administered group died within 24 hours | no inhibitory effect |  |  |  |  |  |  |  |  |  |  |  |  |  |  |  |
| CC1(C)[C@@H](OC(=O)c2cccnc2)CC[C@]2(C)[C@H]3C(=O)C=C4[C@@H]5C[C@@](C)(C(=O)O)CC[C@]5(C)CC[C@@]4(C)[C@]3(C)CC[C@@H]12 [Compound A] |  |  | inhibited in a concentration-dependent manner | fell in accordance with the concentration of these compounds |  |  |  |  |  |  |  |  |  |  |  |  |  |
| C[n+]1cccc(C(=O)O[C@H]2CC[C@]3(C)[C@H]4C(=O)C=C5[C@@H]6C[C@@](C)(C(=O)O)CC[C@]6(C)CC[C@@]5(C)[C@]4(C)CC[C@H]3C2(C)C)c1 [Compound B] |  | significant inhibitory effect | inhibited in a concentration-dependent manner | fell in accordance with the concentration of these compounds | about 14 days | significant moderation effect | significantly moderated the observed reduction in freezing behavior time | dose-dependent increase in the freezing behavior time | about the same as that of the PBS administered group | fell significantly | significant reduction | significant reduction | significantly increased | comparable to that of the non-stimulated microglia | notably more effective than Compound A | about 2 weeks | significantly greater than the PBS administered group |
